From patent publication US20040029823A1, “Antisense oligonucleotide compositions and methods for the modulation of JNK proteins” (priority 1997, published 2004)
Values joined by “and” are separate entries in the source; they are usually repeats but may differ in a detail not shown here. Equal entries are not always repeated. Where two headings read alike, the source gives them in different places. e = 2'-O-(2-methoxyethyl) (MOE); [5mC] = 5-methylcytosine; d = 2'-deoxy (DNA)

How the values were obtained:
JNK1 protein = assay: Western assay of JNK1 protein levels in A549 cells; assay type: cell-based, human; conditions: 300 nM for 20 hours then 200 nM for 4 hours
Procedure: In order to evaluate the activity of potential JNK-modulating oligonucleotides, human lung carcinoma cell line A549 (American Type Culture Collection, Rockville, Md. No. ATCC CCL-185) cells or other cell lines as indicated in the Examples, were grown and treated with oligonucleotides or control solutions as detailed below. After harvesting, cellular extracts were prepared and examined for specific JNK mRNA levels or JNK protein levels (i.e., Northern or Western assays, respectively). In all cases, “% expression” refers to the amount of JNK-specific signal in an oligonucleotide-treated cell relative to an untreated cell (or a cell treated with a control solution that lacks oligonucleotide), and “% inhibition” is calculated as
Western Assays: A549 cells were grown and treated with oligonucleotides as described above. Cells were lysed, and protein extracts were electrophoresed (SDS-PAGE) and transferred to nitrocellulose filters by means known in the art (see, e.g., Chapter 18 In: Molecular Cloning: A Laboratory Manual, 2nd Ed., Sambrook et al., Eds., pages 18.34, 18.47-18.54 and 18.60-18.75)). The amount of each JNK protein was determined by using a primary antibody that specifically recognizes the appropriate JNK protein. The primary antibodies specific for each JNK protein are described in the appropriate Examples. The primary antibodies were detected by means well known in the art (see, e.g., Short Protocols in Molecular Biology, 2nd Ed., Ausubel et al., Eds., John Wiley & Sons, New York, 1992, pages 10-33 to 10-35; and Chapter 18 In: Molecular Cloning: A Laboratory Manual, 2nd Ed., Sambrook et al., Eds., pages 18.1-18.75 and 18.86-18.88) and quantitated using a PHOSPHORIMAGER™ essentially according to the manufacturer's instructions (Molecular Dynamics, Sunnyvale, Calif.).
F. Western Assays: In order to assess the effect of oligonucleotides targeted to JNK1 mRNAs on JNK1 protein levels, Western assays were performed essentially as described above in Example 2, with the following exception(s) and/or modification(s). A primary antibody that specifically binds to JNK1 (catalog No. sc-474-G) was purchased from Santa Cruz Biotechnology, Inc. (Santa Cruz, Calif.; other JNK1-specific antibodies are available from StressGen Biotechnologies, Inc., Victoria, BC, Canada; and Research Diagnostics, Inc., Flanders, N.J.). In this experiment, cells were grown and treated with oligonucleotide at 300 nM for the initial 20 hours and then at 200 nM for 4 hours. At t=48 h, aliquots were removed for Northern and Western analyses, and fresh media was added to the cells. Aliquots for analysis were also taken at t=72 h. The samples from t=48 h and t=72 h were analyzed using the Northern and Western assays described above.

MDA-MB-231 tumors = assay: MDA-MB-231 human breast adenocarcinoma tumors in nude mice; assay type: in vivo; conditions: MDA-MB-231 tumors, 25 mg/kg intravenous once daily
Source text: Approximately 5×10^6 breast adenocarcinoma cells (cell line MDA-MB-231; American Type Culture Collection, Richmond, Va., No. ATCC HTB-26) were implanted subcutaneously in the right inner thigh of nude mice (n=6 for each of three sets of mice). Oligonucleotides ISIS 15346 (JNK1, SEQ ID NO: 16) and 15353 (JNK2, SEQ ID NO: 31) were suspended in saline and administered once daily to two sets of mice on the first day the tumor volume was about […]. A saline-only (0.9% NaCl) solution was given to a third set of animals as a control. Oligonucleotides were given by intravenous injection at a dosage of 25 mg/kg. Tumor size was measured and tumor volume was calculated on days 12, 19, 26 and 33 following tumor cell inoculation.

JNK1 mRNA = assay: Northern assay of JNK1 mRNA expression in A549 cells; assay type: cell-based, human; conditions: for Normalized % Control / RNA % Control: JNK1 mRNA; for Normalized % Control: chemically modified oligonucleotides; for RNA % Control: 300 nM for 20 hours then 200 nM for 4 hours
In short: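 A549 cells at 80–90% confluence got oligonucleotide at 400 nM final with 20 μg/mL Lipofectin in DMEM for 4 h at 37 °C, then 18 h recovery in 10% serum. Northern blot with radiolabelled JNK1 cDNA probe, phosphorimager-quantitated, normalized to G3PDH; % inhibition versus Lipofectin-only or untreated cells.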

HUVEC = assay: Apoptosis in HUVEC (percent hypodiploid cells, flow cytometry); assay type: cell-based, human

Question: Which “Protein % Control” value (JNK1 protein; t = 48 h) does the source give for “15346 (antisense CTCTCTGTAGGCCCGCTTGG; sugars from the 5' end e5 d9 e6, [5mC] at 1, 3, 5, 16, all phosphorothioate, methylation of C not given here) [compound 15346]” here?
Answer: 42.7%

Question: And the “Protein % Control” value (JNK1 protein; t = 72 h)?
Answer: 25.7%

Question: What about the “tumor growth compared to the saline control” value (MDA-MB-231 tumors) of the same substance?
Answer: inhibited tumor growth

Question: What about the “Normalized % Control” value (JNK1 mRNA; dose 100 nM) of the same substance?
Answer: 22.6%

Question: And the “Normalized % Control” value (JNK1 mRNA; dose 400 nM)?
Answer: 11.0%

Question: And the “RNA % Control” value (JNK1 mRNA; t = 48 h)?
Answer: 4.3%

Question: And the “RNA % Control” value (JNK1 mRNA; t = 72 h)?
Answer: 10.6%

Question: What about the “inhibition of JNK1 mRNA expression” value (JNK1 mRNA; chemically modified derivatives of ISIS 12539, 400 nM (Table 5)) of the same substance?
Answer: at least 88%

Question: Which “percent hypodiploid cells (a measure of apoptosis)” value (HUVEC) does the source give for “CTTTCCGTTGGACCCCTGGG (phosphorothioate, 2'-MOE gapmer, further chemistry not given here) [ISIS 18076, scrambled control for ISIS 15346; 2′-methoxyethoxy gapmer, phosphorothioate throughout, reference compound]” here?
Answer: 8% and 10% and 11%

Question: What does the source list for “C^ST^SC^ST^SC^ST^SG^ST^SA^SG^SG^SC^SC^SC^SG^SC^ST^ST^SG^SG (antisense CTCTCTGTAGGCCCGCTTGG; DNA, all phosphorothioate, methylation of C not given here) [ISIS 15346, JNK1 gapmer: P═S, 2′-MOE wings; P═S, 2′-deoxy core]”?
Answer: percent hypodiploid cells (a measure of apoptosis) (HUVEC; HUVEC, Oligo + Cyclohexamide): 8%; percent hypodiploid cells (a measure of apoptosis) (HUVEC; HUVEC, Oligo + TNFa (10 ng/ml)): 14%; percent hypodiploid cells (a measure of apoptosis) (HUVEC; HUVEC, Oligo + z-VAD.fmk): 5%; percent hypodiploid cells (a measure of apoptosis) (HUVEC; HUVEC, Oligo alone): 13%

Question: For “GTGCGCGCGAGCCCGAAATC (phosphorothioate, 2'-MOE gapmer, further chemistry not given here) [ISIS 18078, scrambled control for ISIS 15353; 2′-methoxyethoxy gapmer, phosphorothioate throughout, reference compound]”, which “percent hypodiploid cells (a measure of apoptosis)” value (HUVEC) is on record?
Answer: 11% and 12% and 9%
